Source: US4876245A, “Fluorine-containing macrolide compounds and their use” (Daikin Industries Ltd., priority 1986, dated 1989)
In brackets after ≈: the same amount, converted by molar mass.

Key:
Type in all cases: cell-based
Shigella sonnei = test: antimicrobial activity, agar streak method (MIC), aerobic gram-negative
Source text: The antimicrobial activities of 8,9-difluoroerythromycin 6,9-epoxide (Example 1), 8,9-difluoroerythromycin 6,9-epoxide 11,12-carbonate (Example 2) and 8,9-difluoroerythromycin 6,9-epoxide 11,12-sulfite (Example 4) are examined by an agar streak method and expressed in terms of minimal inhibitory concentrations (MIC, μg/ml) against the following bacteria.

Streptococcus faecalis = test: antimicrobial activity, agar streak method (MIC), aerobic gram-positive; settings: Enterococcus faecalis
Streptococcus pneumoniae = test: as above
Bacterioides fragilis = test: antimicrobial activity, agar streak method (MIC), anaerobic
Escherichia coli = test: antimicrobial activity, agar streak method (MIC), aerobic gram-negative
Staphylococcus aureus = test: antimicrobial activity, agar streak method (MIC), aerobic gram-positive
Neisseria gonorrhoeae = test: antimicrobial activity, agar streak method (MIC), aerobic gram-negative
[1] = test system: Corynebacterium diphtheriae; test: antimicrobial activity, agar streak method (MIC), aerobic gram-positive
Clostridium perfringens = test: microbe, parasite or virus in culture
Hemophilus influenzae = test: antimicrobial activity, agar streak method (MIC), aerobic gram-negative; settings: Haemophilus influenzae
Proteus vulgaris = test: as above
Micrococcus luteus = test: antimicrobial activity, agar streak method (MIC), aerobic gram-positive
Bacillus subtilis = test: as above
Mycoplasma homilis = test: antimicrobial activity, agar streak method (MIC)
Streptococcus pyogenes = test: antimicrobial activity, agar streak method (MIC), aerobic gram-positive
Salmonella typhi = test: antimicrobial activity, agar streak method (MIC), aerobic gram-negative; settings: Salmonella enterica
[2] = test system: Fusobacterium necrophorum; test: antimicrobial activity, agar streak method (MIC), anaerobic
Pseudomonas aeruginosa = test: antimicrobial activity, agar streak method (MIC), aerobic gram-negative
Bacillus natto = test: antimicrobial activity, agar streak method (MIC), aerobic gram-positive; settings: Bacillus subtilis
Acholeplasma laidlawii = test: antimicrobial activity, agar streak method (MIC), aerobic gram-negative

Compound	MIC (Shigella sonnei)	MIC (Streptococcus faecalis)	MIC (Streptococcus pneumoniae)	MIC (Bacterioides fragilis)	MIC (Escherichia coli)	MIC (Staphylococcus aureus)	MIC (Neisseria gonorrhoeae)	MIC [1]	MIC (Clostridium perfringens)	MIC (Hemophilus influenzae)	MIC (Proteus vulgaris)	MIC (Micrococcus luteus)	MIC (Bacillus subtilis)	MIC (Mycoplasma homilis)	MIC (Streptococcus pyogenes)	MIC (Salmonella typhi)	MIC [2]	MIC (Pseudomonas aeruginosa)	MIC (Bacillus natto)	MIC (Acholeplasma laidlawii)
CC[C@H]1OC(=O)[C@H](C)[C@@H](O[C@H]2C[C@@](C)(OC)[C@@H](O)[C@H](C)O2)[C@H](C)[C@@H](O[C@@H]2O[C@H](C)C[C@H](N(C)C)[C@H]2O)[C@@]2(C)CC(C)(F)C(F)(O2)[C@H](C)[C@@H](O)[C@]1(C)O (stereo partly drawn) [Example 1, 8,9-difluoroerythromycin A 6,9-epoxide]	25 µg/mL (≈ 33.2 µM)	1.25 µg/mL (≈ 1.66 µM)	0.025 µg/mL (≈ 0.0332 µM)	0.21 µg/mL (≈ 0.279 µM)	31.2 µg/mL (≈ 41.5 µM)	0.156 µg/mL (≈ 0.207 µM)	0.052 µg/mL (≈ 0.069 µM)	0.011 µg/mL (≈ 0.0146 µM)	0.83 µg/mL (≈ 1.1 µM)	3.5 µg/mL (≈ 4.64 µM)	26 µg/mL (≈ 34.5 µM)	0.006 µg/mL (≈ 0.00796 µM)	0.049 µg/mL (≈ 0.065 µM)	25 µg/mL (≈ 33.2 µM)	0.011 µg/mL (≈ 0.0146 µM)	13.2 µg/mL (≈ 17.5 µM)	2 µg/mL (≈ 2.65 µM)	26 µg/mL (≈ 34.5 µM)	0.078 µg/mL (≈ 0.103 µM)	0.1 µg/mL (≈ 0.133 µM)
CC[C@H]1OC(=O)[C@H](C)[C@@H](O[C@H]2C[C@@](C)(OC)[C@@H](O)[C@H](C)O2)[C@H](C)[C@@H](O[C@@H]2O[C@H](C)C[C@H](N(C)C)[C@H]2O)[C@@]2(C)CC(C)(F)C(F)(O2)[C@H](C)[C@H]2OS(=O)O[C@@]21C (stereo partly drawn) [Example 4, 8,9-difluoroerythromycin A 6,9-epoxide 11,12-sulfite]	12.5 µg/mL (≈ 15.6 µM)	0.625 µg/mL (≈ 0.781 µM)	0.013 µg/mL (≈ 0.0163 µM)	0.84 µg/mL (≈ 1.05 µM)	7.8 µg/mL (≈ 9.75 µM)	0.156 µg/mL (≈ 0.195 µM)	0.052 µg/mL (≈ 0.065 µM)	0.022 µg/mL (≈ 0.0275 µM)	0.3 µg/mL (≈ 0.375 µM)	7 µg/mL (≈ 8.75 µM)	26 µg/mL (≈ 32.5 µM)	0.02 µg/mL (≈ 0.025 µM)	0.049 µg/mL (≈ 0.0613 µM)	25 µg/mL (≈ 31.3 µM)	0.011 µg/mL (≈ 0.0138 µM)	13.2 µg/mL (≈ 16.5 µM)	8 µg/mL (≈ 10 µM)	26 µg/mL (≈ 32.5 µM)	0.078 µg/mL (≈ 0.0975 µM)	0.2 µg/mL (≈ 0.25 µM)
CC[C@H]1OC(=O)[C@H](C)[C@@H](O[C@H]2C[C@@](C)(OC)[C@@H](O)[C@H](C)O2)[C@H](C)[C@@H](O[C@@H]2O[C@H](C)C[C@H](N(C)C)[C@H]2O)[C@@]2(C)CC(C)(F)C(F)(O2)[C@H](C)[C@H]2OC(=O)O[C@@]21C (stereo partly drawn) [Example 2, 8,9-difluoroerythromycin A 6,9-epoxide 11,12-carbonate]	12.5 µg/mL (≈ 16 µM)	0.625 µg/mL (≈ 0.801 µM)	0.013 µg/mL (≈ 0.0167 µM)	0.84 µg/mL (≈ 1.08 µM)	7.8 µg/mL (≈ 10 µM)	0.156 µg/mL (≈ 0.2 µM)	0.052 µg/mL (≈ 0.0667 µM)	0.022 µg/mL (≈ 0.0282 µM)	3.3 µg/mL (≈ 4.23 µM)	7 µg/mL (≈ 8.98 µM)	26 µg/mL (≈ 33.3 µM)	0.02 µg/mL (≈ 0.0256 µM)	0.049 µg/mL (≈ 0.0628 µM)	25 µg/mL (≈ 32.1 µM)	0.011 µg/mL (≈ 0.0141 µM)	13.2 µg/mL (≈ 16.9 µM)	8 µg/mL (≈ 10.3 µM)	26 µg/mL (≈ 33.3 µM)	0.078 µg/mL (≈ 0.1 µM)	0.2 µg/mL (≈ 0.256 µM)
